Patent US10604554B2, “Double-acylated GLP-1 derivatives” (Novo Nordisk A/S, priority 2012, dated 2020)
Read-outs that look alike come from different tables or passages of the source.

Columns and labels:
in vivo [1] = conditions: male, Sprague Dawley, rat, iv
human GLP-1 receptor [2] = target: T1, human GLP-1 receptor (Homo sapiens, UniProt P43220); test: In vitro potency (CRE luciferase; whole cells); assay type: cell-based; set-up: EC50/pM (ratio 1% HSA/0% HSA): unit not given here; conditions: for EC50: BHK cells
T1 construct: expressed in transfected cells; host or cells: BHK cells, clone FCW467-12A/KZ10-1 (parent line BHKTS13), further transfected with CRE luciferase
T1 sequence (P43220 24-463): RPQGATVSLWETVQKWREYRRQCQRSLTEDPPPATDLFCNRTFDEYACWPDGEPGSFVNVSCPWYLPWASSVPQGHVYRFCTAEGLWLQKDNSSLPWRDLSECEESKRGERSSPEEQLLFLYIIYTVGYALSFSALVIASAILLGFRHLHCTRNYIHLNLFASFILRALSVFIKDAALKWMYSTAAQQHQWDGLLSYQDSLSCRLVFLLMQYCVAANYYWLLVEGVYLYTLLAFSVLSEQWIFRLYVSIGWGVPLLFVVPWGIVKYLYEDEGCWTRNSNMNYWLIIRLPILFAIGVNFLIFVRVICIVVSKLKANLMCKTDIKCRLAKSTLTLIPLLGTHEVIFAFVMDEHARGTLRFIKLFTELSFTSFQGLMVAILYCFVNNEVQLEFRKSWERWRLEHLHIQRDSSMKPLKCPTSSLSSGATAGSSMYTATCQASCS
Method in brief: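 Reporter: CRE-luciferase in BHK cells stably expressing human GLP-1R, 5×10^3 cells/well; compounds tested in buffer containing 0% or 1% HSA.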

in vivo [3] = conditions: male, Göttingen, minipig, iv
Description: (§1) The purpose of this study is to determine the protraction in vivo of the GLP-1 derivatives after i.v. administration to minipigs, i.e. the prolongation of their time of action. This is done in a pharmacokinetic (PK) study, where the terminal half-life of the derivative in question is determined. By terminal half-life is generally meant the period of time it takes to halve a certain plasma concentration, measured after the initial distribution phase.
(§2) Study A: Male Göttingen minipigs were obtained from Ellegaard Göttingen Minipigs (Dalmose, Denmark) approximately 7-14 months of age and weighing from approximately 16-35 kg were used in the studies. The minipigs were housed individually and fed restrictedly once or twice daily with SDS minipig diet (Special Diets Services, Essex, UK). After at least 2 weeks of acclimatisation two permanent central venous catheters were implanted in vena cava caudalis or cranialis in each animal. The animals were allowed 1 week recovery after the surgery, and were then used for repeated pharmacokinetic studies with a suitable wash-out period between successive GLP-1 derivative dosings.
(§3) The animals were fasted for approximately 18 h before dosing and from 0 to 4 h after dosing, but had ad libitum access to water during the whole period.
(§4) The GLP-1 derivatives were dissolved in 50 mM sodium phosphate, 145 mM sodium chloride, 0.05% tween 80, pH 7.4 to a concentration of usually from 20-60 nmol/ml. […] Blood samples (for example 0.8 ml) were collected in EDTA buffer (8 mM) and then centrifuged at 4° C. and 1942 G for 10 minutes.
(§5) Study B: Male Göttingen minipigs were obtained from Ellegaard Göttingen Minipigs (Dalmose, Denmark) approximately 5 months of age and weighing from approximately 9 kg were used in the studies. The minipigs were housed in pens with straw as bedding, six together in each pen and fed restrictedly once or twice daily with Altromin 9023 minipig diet (Chr. Petersen A/S, DK-4100 Ringsted) or Standard SMP(E) minipig diet (Special Diet Services (SDS), UK). The pigs were used for repeated pharmacokinetic studies with a suitable wash-out period between successive GLP-1 derivative dosings.
(§6) The GLP-1 derivatives were dissolved in 50 mM sodium phosphate, 145 mM sodium chloride, 0.05% tween 80, pH 7.4 to a concentration of usually from 20-60 nmol/ml. Intravenous injections (the volume corresponding to usually 2 nmol/kg, for example 0.1 ml/kg) of the compounds were given as intravenous injections via a Venflon inserted in an ear vein, while they are placed unanaesthetised in a sling. The dose volume was 0.1 ml/kg, and blood was sampled at predefined time points for up till 17 days post dosing (samples was taken with syringe from a jugular vein).
(§7) Individual plasma concentration-time profiles were analyzed by a non-compartmental model in Phoenix WinNonLin ver. […] (Pharsight Inc., Mountain View, Calif., USA), and the resulting terminal half-lives (harmonic mean) determined.

human GLP-1 receptor [4] = target: T1, human GLP-1 receptor; test: GLP-1 receptor binding (SPA, displacement of 125I-GLP-1); conditions: for IC50: 0.001% HSA (low albumin)
Method in brief: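 Tracer [125I]-GLP-1(7-36)NH2 at 0.06 nM final competed on hamster stably transfected cell membranes captured by WGA SPA beads; 120 min, 30 °C, scintillation count.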

[5] = Pharmacokinetic (PK) study in rat; conditions: male, Sprague Dawley, in vivo, iv, 6 nmol/kg
[6] = Pharmacokinetic (PK) study in minipig; conditions: male, Göttingen, in vivo, iv
Description: as §1, §2, §3, §4, §5, §6, §7

Row | half-life (in vivo [1]) | EC50 (human GLP-1 receptor [2]; 0% HSA, read-out: In vitro potency (CRE luciferase) EC50 (0% HSA)) | EC50 (human GLP-1 receptor [2]; In vitro potency (CRE luciferase) EC50 (1% HSA), 1% HSA) | half-life (in vivo [3]) | IC50 (human GLP-1 receptor [4]; read-out: Receptor binding affinity IC50 (low HSA)) | IC50 (high HSA) (human GLP-1 receptor [4]; Receptor binding affinity IC50 (high HSA), 2.0% HSA (high albumin), heading: Receptor binding affinity IC50) | SMILES | half-life [5] | half-life [6] | EC50 (human GLP-1 receptor [2]; In vitro potency (CRE luciferase) EC50 (0% HSA), 0% HSA) | EC50/pM (ratio 1% HSA/0% HSA) (human GLP-1 receptor [2]; ratio of EC50 at 1% HSA to EC50 at 0% HSA) | IC50 (human GLP-1 receptor [4]; Receptor binding affinity IC50 (low HSA))
1 | 28 h | 0.0073 nM | 1.57 nM | 95 h | 0.74 nM | 522 nM | CC[C@H](C)[C@H](NC(=O)[C@H](Cc1ccccc1)NC(=O)[C@H](CCC(=O)O)NC(=O)[C@H](CCCCNC(=O)[C@@H](N)CCCCNC(=O)COCCOCCNC(=O)CC[C@H](NC(=O)CC[C@H](NC(=O)CCCCCCCCCCCCCCC(=O)O)C(=O)O)C(=O)O)NC(=O)[C@H](C)NC(=O)[C@H](C)NC(=O)[C@H](CCC(N)=O)NC(=O)CNC(=O)[C@H](CCC(=O)O)NC(=O)[C@H](CC(C)C)NC(=O)[C@H](Cc1ccc(O)cc1)NC(=O)[C@H](CO)NC(=O)[C@H](CO)NC(=O)[C@@H](NC(=O)[C@H](CC(=O)O)NC(=O)[C@H](CO)NC(=O)[C@@H](NC(=O)[C@H](Cc1ccccc1)NC(=O)[C@@H](NC(=O)CNC(=O)[C@H](CCC(=O)O)NC(=O)C(C)(C)NC(=O)[C@@H](N)Cc1c[nH]cn1)[C@@H](C)O)[C@@H](C)O)C(C)C)C(=O)N[C@@H](C)C(=O)N[C@@H](Cc1c[nH]c2ccccc12)C(=O)N[C@@H](CC(C)C)C(=O)N[C@H](C(=O)N[C@@H](CCCNC(=N)N)C(=O)NCC(=O)N[C@@H](CCCNC(=N)N)C(=O)N[C@@H](CCCCNC(=O)[C@@H](N)CCCCNC(=O)COCCOCCNC(=O)CC[C@H](NC(=O)CC[C@H](NC(=O)CCCCCCCCCCCCCCC(=O)O)C(=O)O)C(=O)O)C(=O)O)C(C)C [Example 11, N^ε26-[(2S)-2-amino-6-[[2-[2-[2-[[(4S)-4-carboxy-4-[[(4S)-4-carboxy-4-(15-carboxypentadecanoylamino)butanoyl]amino]butanoyl]amino]ethoxy]ethoxy]acetyl]amino]hexanoyl], N^ε37-[(2S)-2-amino-6-[[2-[2-[2-[[(4S)-4-carboxy-4-[[(4S)-4-carboxy-4-(15-carboxypentadecanoylamino)butanoyl]amino]butanoyl]amino]ethoxy]ethoxy]acetyl]amino]hexanoyl]-[Aib^8,Arg^34, Lys^37]-GLP-1-(7-37)-peptide] |  |  |  |  | 
2 |  |  |  |  |  |  | CC[C@H](C)[C@H](NC(=O)[C@H](Cc1ccccc1)NC(=O)[C@H](CCC(=O)O)NC(=O)[C@H](CCCCNC(=O)[C@@H](N)CCCCNC(=O)COCCOCCNC(=O)COCCOCCNC(=O)CC[C@H](NC(=O)CCCCCCCCCCOc1ccc(C(=O)O)cc1)C(=O)O)NC(=O)[C@H](C)NC(=O)[C@H](C)NC(=O)[C@H](CCC(N)=O)NC(=O)[C@H](CCC(=O)O)NC(=O)[C@H](CCC(=O)O)NC(=O)[C@H](CC(C)C)NC(=O)[C@H](Cc1ccc(O)cc1)NC(=O)[C@H](CO)NC(=O)[C@H](CO)NC(=O)[C@@H](NC(=O)[C@H](CC(=O)O)NC(=O)[C@H](CO)NC(=O)[C@@H](NC(=O)[C@H](Cc1ccccc1)NC(=O)[C@@H](NC(=O)CNC(=O)[C@H](CCC(=O)O)NC(=O)C(C)(C)NC(=O)[C@@H](N)Cc1c[nH]cn1)[C@@H](C)O)[C@@H](C)O)C(C)C)C(=O)N[C@@H](C)C(=O)N[C@@H](Cc1c[nH]c2ccccc12)C(=O)N[C@@H](CC(C)C)C(=O)N[C@H](C(=O)N[C@@H](CCCNC(=N)N)C(=O)NCC(=O)N[C@@H](CCCNC(=N)N)C(=O)N[C@@H](CCCCNC(=O)[C@@H](N)CCCCNC(=O)COCCOCCNC(=O)COCCOCCNC(=O)CC[C@H](NC(=O)CCCCCCCCCCOc1ccc(C(=O)O)cc1)C(=O)O)C(=O)O)C(C)C [Example 22] | 15 h | 59 h | 0.0055 nM | 13 | 0.26 nM
